Where two headings read alike, the source gives them in different places.
What was measured:
VEGFR II (KDR) = VEGFR II (KDR) (Homo sapiens, UniProt P35968); assay: Inhibition of the KDR kinase activity (33P-ATP, poly-(Glu4Tyr) filter assay); type: biochemical
Method: • Stock Solutions • Stock solution A: 3 mmol of ATP in water, pH 7.0 (−70° C.) • Stock solution B: g-33P-ATP 1 mCi/100 μl • Stock solution C: poly-(Glu4Tyr) 10 mg/ml in water • Solution for Dilutions • Substrate solvent: 10 mmol of DTT, 10 mmol of manganese chloride, 100 mmol of magnesium chloride • Enzyme solution: 120 mmol of tris/HCl, pH 7.5, 10 μM of sodium vanadium oxide Sample Application 1 Inhibition of the KDR- and FLT-1 Kinase Activity in the Presence of the Compounds According to the Invention
In a microtiter plate (without protein binding) that tapers to a point, 10 μl of substrate mix (10 μl of volume of ATP stock solution A+25 μCi of g-33P-ATP (about 2.5 μl of stock solution B)+30 μl of poly-(Glu4Tyr) stock solution C+1.21 ml of substrate solvent), 10 μl of inhibitor solution (substances corresponding to the dilutions, 3% DMSO in substrate solvent as a control) and 10 μl of enzyme solution (11.25 μg of enzyme stock solution (KDR, FLT-1 or FLT-4 kinase) are added at 4° C. in 1.25 ml of enzyme solution (dilute). It is thoroughly mixed and incubated for 10 minutes at room temperature. Then, 10 μl of stop solution (250 mmol of EDTA, pH 7.0) is added, mixed, and 10 μl of the solution is transferred to a P 81 phosphocellulose filter. […] The filter paper is dried, coated with Meltilex, and measured in a microbeta counter. […]

[1] = molecular target: T1, Cytochrome P450 isoenzyme 3A4 (Homo sapiens, UniProt P08684); assay: Cytochrome P450 inhibition (Crespi et al.); type: in vitro ADME; conditions: baculovirus/insect cell-expressed human isoenzyme 3A4
T1 construct: host or cells: baculovirus/insect cells
Method: Cytochrome P450 Inhibition
The Cytochrome P450 inhibition was performed according to the publication of Crespi et al. (Anal. Biochem., 248, 188–190 (1997)) with use of the baculovirus/insect cell-expressed and human Cytochrome P450 isoenzyme (3A4).

Chain of VEGFR II (KDR) (P35968 20-1356, species assumed): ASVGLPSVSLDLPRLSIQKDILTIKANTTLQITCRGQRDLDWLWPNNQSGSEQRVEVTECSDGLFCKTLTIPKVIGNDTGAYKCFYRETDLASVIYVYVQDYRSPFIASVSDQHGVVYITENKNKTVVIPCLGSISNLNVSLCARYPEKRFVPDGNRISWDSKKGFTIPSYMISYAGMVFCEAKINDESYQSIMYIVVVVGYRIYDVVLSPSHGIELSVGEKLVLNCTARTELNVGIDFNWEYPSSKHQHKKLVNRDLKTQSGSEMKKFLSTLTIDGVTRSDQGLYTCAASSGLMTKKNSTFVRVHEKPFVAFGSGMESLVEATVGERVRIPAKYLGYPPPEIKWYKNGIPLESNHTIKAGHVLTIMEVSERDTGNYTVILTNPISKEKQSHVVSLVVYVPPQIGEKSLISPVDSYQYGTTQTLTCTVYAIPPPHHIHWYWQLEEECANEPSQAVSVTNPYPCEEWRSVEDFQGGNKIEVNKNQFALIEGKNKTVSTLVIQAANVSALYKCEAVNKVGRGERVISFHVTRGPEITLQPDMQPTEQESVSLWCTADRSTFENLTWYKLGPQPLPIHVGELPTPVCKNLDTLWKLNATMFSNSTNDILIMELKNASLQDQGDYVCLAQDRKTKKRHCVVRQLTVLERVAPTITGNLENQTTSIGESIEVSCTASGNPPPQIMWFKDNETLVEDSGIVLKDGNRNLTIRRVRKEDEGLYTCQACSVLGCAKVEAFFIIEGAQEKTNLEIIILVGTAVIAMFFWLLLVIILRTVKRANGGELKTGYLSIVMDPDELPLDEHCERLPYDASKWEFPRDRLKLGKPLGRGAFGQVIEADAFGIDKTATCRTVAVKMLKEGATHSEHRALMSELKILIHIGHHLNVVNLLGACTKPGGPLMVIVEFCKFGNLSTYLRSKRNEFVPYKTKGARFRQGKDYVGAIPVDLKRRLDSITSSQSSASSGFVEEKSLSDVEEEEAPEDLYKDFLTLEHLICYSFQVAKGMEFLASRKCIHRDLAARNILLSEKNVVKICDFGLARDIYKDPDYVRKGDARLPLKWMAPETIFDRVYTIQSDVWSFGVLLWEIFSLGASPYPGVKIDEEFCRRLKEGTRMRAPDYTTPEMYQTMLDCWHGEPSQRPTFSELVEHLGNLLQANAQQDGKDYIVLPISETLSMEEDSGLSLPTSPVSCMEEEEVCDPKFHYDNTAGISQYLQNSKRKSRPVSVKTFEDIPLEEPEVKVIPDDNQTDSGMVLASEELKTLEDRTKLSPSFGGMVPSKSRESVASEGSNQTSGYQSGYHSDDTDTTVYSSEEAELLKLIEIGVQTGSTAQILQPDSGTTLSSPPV
T1 sequence (P08684 whole entry): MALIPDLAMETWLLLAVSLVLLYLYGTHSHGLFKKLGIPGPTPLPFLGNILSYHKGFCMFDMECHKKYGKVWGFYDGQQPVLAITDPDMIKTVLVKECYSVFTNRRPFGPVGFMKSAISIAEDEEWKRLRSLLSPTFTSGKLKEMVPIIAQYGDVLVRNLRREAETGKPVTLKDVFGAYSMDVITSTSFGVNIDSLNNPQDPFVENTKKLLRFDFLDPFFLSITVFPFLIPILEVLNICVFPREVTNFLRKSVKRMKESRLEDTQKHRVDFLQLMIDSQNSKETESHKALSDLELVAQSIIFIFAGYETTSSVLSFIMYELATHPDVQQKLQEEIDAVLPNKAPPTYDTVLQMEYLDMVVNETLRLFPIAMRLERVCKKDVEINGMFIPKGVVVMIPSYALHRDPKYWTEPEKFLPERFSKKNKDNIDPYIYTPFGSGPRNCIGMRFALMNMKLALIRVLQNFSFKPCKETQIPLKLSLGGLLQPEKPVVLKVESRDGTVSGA

Row | IC50 (VEGFR II (KDR)) [µM] | IC50 ([1]; heading: Inhibition of Cyp 450 3A4) [µM] | IC50 ([1]; read-out: Inhibition of Cyp 450 3A4 (IC50)) [µM] | SMILES
1 | 0.059 | 11 |  | O=C(Nc1ccc(OCC(F)(F)F)cc1)c1ccccc1NCc1ccc(=O)[nH]c1 [Example 1.5]
2 | 0.056 |  | 5.6 | O=C(Nc1ccc(OC(F)(F)F)cc1)c1ccccc1NCc1ccc(=O)[nH]c1 [Example 1.0, 2-[(6-Oxo-1,6-dihydro-pyridin-3-ylmethyl)-amino]-N-(4-trifluoromethoxy-phenyl)-benzamide]

— patent US7202260B2, “VEGFR-2 and VEGFR-3 inhibitory anthranilamide pyridones” (Schering AG, priority 2003, dated 2007)
